Measured values from US6703404B2, “Tert -butyl-(7-methyl-imidazol [1,2-a]pyridin-3-yl)-amine derivatives” (Gruenenthal GmbH, priority 1999, dated 2004).
Where a name gives a salt, the structure may show the parent alone.

Assays:
NO synthase [1] = target: T1, NO synthase (Rattus norvegicus, UniProt P29476); experiment: HTS-NOS assay (labelled arginine, filter plate); type: biochemical; parameters: from tissue; host or cells: rat cerebellum (20,000 g supernatant of homogenate); details: 10 μm test substance; enzyme from rat cerebellum
Method: This assay enabled the percentage inhibition of NO synthase to be determined by measuring the NOS activity on the action of the active ingredient. NO synthase was mixed with radioactively labelled arginine and the active ingredient under suitable conditions. After terminating the NO-forming reaction at a predetermined time, the amount of unreacted arginine was determined directly or indirectly. Comparison of this amount with the amount of arginine remaining from a mixture of NOS and arginine without the addition of active ingredient but under conditions which were otherwise the same gave the % inhibition of NO synthase by the active ingredient tested. This assay was performed as follows:
(a) Incubation of NO synthase, with labelled arginine as a substrate, in a reaction vessel.
(b) Separation of the labelled arginine from any labelled citrulline which was formed as a product of the enzymatic reaction at a time at which the concentration of citrulline was increasing.
(c) Measuring the amount of arginine separated in each case.
Separation was effected through a filter plate membrane.
This NOS assay was particularly suitable for “High Throughput Screening” (HTS) on microtitration plates (MTPs).
In this HTS-NOS assay, radioactive arginine was used as the substrate. The assay volume can be selected within the range from […] depending on the type of microtitration plate (MTP). Cofactors and coenzymes were added depending on the enzyme source used. Batches were incubated in this microtitration plate (assay MTP) according to step (a) at room temperature, for between 5 and 60 minutes depending on the enzyme activity (units) employed. At the end of the incubation (step (a)) the plate was placed in a cell harvester which was fitted with an MTP comprising a cation exchange membrane filter base (filter MTP). All the batches from the assay MTP were transferred to this filter MTP and were filtered off under suction through a cation exchange filter plate comprising a paper filter containing phosphate groups. […] By means of this procedure, the remaining arginine substrate was bound to the cation exchanger, whilst the enzymatically formed radioactive citrulline was quantitatively removed by washing. After drying the filter MTP and adding a scintillation liquid, the bound arginine was counted in a scintillation counter. An uninhibited NOS reaction was manifested by a low level of radioactivity. An inhibited enzyme reaction meant that the radioactive arginine had not reacted, i.e. the filter contained a high level of radioactivity. […]
The contents of the assay MTP were subsequently transferred by means of a 96-well cell harvester into a 96-well cation exchanger MTP (filter MTP) and was filitered under suction. […] After a holding time of 1 hour, the plate was measured in a βcounter. […]

NO synthase [2] = target: T1, NO synthase; experiment: Citrulline assay (Bredt and Snyder); type: biochemical
Method: This assay was performed as described by D. S. Bredt and S. H. Snyder (Proc. Natl. Acad. Sci. USA (1990), 87, 682-85).

Row | Molecule | HTS-NOS assay: %-inhibition (10 μm) (NO synthase [1]) [%] | IC50 (NO synthase [2]) [nM] | further results
1 | Cc1cc(C)n2c(NC(C)(C)C)c(C3CCCCC3)nc2c1 [Example 5, tert-butyl-(2-cyclohexyl-5,7-dimethyl-imidazo[1,2-a]pyridin-3-yl)-amine] | – | – | inhibition at 10 µM (NO synthase [1]): 63%
2 | Cc1cc(C)n2c(NC(C)(C)C)c(-c3ccc([N+](=O)[O-])o3)nc2c1 [Example 9] | 59 | – | –
3 | Cc1ccn2c(NC(C)(C)C)c(-c3ccc(C(=O)O)s3)nc2c1 [Example 17, 5-(3-tert-butylamino-7-methyl-imidazo[1,2-a]pyridin-2-yl)-thiophen-12-carboxylic acid] | 61 | – | –
4 | Cc1cc(C)n2c(NC(C)(C)C)c(-c3ccco3)nc2c1 [Example 18, tert-butyl-(2-furan-2-yl-5,7-dimethyl-imidazo[1,2-a]pyridin-3-yl)amine hydrochloride] | – | 2800 | –
5 | Cc1ccn2c(NC(C)(C)C)c(-c3ccccc3)nc2c1 [Example 19, tert-butyl-(7-methyl-2-phenylimidazo[1,2-a]pyridin-3-yl)amine hydrochloride] | – | 2400 | –
6 | Cc1cc(C)n2c(NC(C)(C)C)c(C)nc2c1 [Example 20, tert-butyl-(2,5,7-trimethyl[1,2-a]pyridin-3-yl)amine hydrochloride] | – | 9200 | –
7 | [5-(3-tert-butyl-7-methyl-imidazo[1,2-a]pyridin-2-yl)-furan-2-yl]-methanol [Example 10] | 52 | – | –
